# ChEMBL document CHEMBL4673372, “1,2,3-triazole-thiazole hybrids: Synthesis, in vitro antimicrobial activity and antibiofilm studies” (Bioorg Med Chem Lett, 2021)
# How the values were obtained:
# Bacillus subtilis [1] = experiment: Inhibition of biofilm formation in Bacillus subtilis MTCC 121 incubated for 24 hrs by crystal violet staining based microtiter plate method; format: functional, organism-based
# Candida albicans [2] = experiment: Antifungal activity against Candida albicans MTCC 854; format: functional
# Staphylococcus aureus [3] = experiment: Antibacterial activity against Staphylococcus aureus MLS16 MTCC 2940 assessed as inhibition of bacterial growth by microtiter broth dilution method; format: functional
# Candida albicans [4] = experiment: Inhibition of biofilm formation in Candida albicans MTCC 3017 incubated for 24 hrs by crystal violet staining based microtiter plate method; format: functional, organism-based; conditions: Candida albicans, MTCC 3017, 24 h; read-out: IC50
# Pseudomonas aeruginosa [5] = experiment: Bactericidal activity against Pseudomonas aeruginosa MTCC 2453; format: functional
# Staphylococcus aureus [6] = experiment: Antibacterial activity against Staphylococcus aureus MTCC 96 assessed as inhibition of bacterial growth by microtiter broth dilution method; format: functional
# [Candida] aaseri [7] = Antifungal activity against Candida aaseri MTCC 1962; format: functional; conditions: Yamadazyma aaseri
# Candida parapsilosis [8] = experiment: Antifungal activity against Candida parapsilosis MTCC 1745; format: functional; conditions: Lodderomyces parapsilosis
# Candida albicans [9] = experiment: Antifungal activity against Candida albicans MTCC 4748; format: functional
# Pichia sporocuriosa [10] = experiment: Antifungal activity against Issatchenkia hanoiensis MTCC 4755; format: functional
# Candida albicans [11] = experiment: Fungicidal activity against Candida albicans MTCC 183; format: functional
# [12] = Cytotoxicity against human THP-1 cells; format: cell-based
# Micrococcus luteus [13] = experiment: Bactericidal activity against Micrococcus luteus MTCC 2470; format: functional
# Escherichia coli [14] = experiment: Antibacterial activity against Escherichia coli MTCC 739 assessed as inhibition of bacterial growth by microtiter broth dilution method; format: functional
# Pseudomonas aeruginosa [15] = experiment: Inhibition of biofilm formation in Pseudomonas aeruginosa MTCC 2453 incubated for 24 hrs by crystal violet staining based microtiter plate method; format: functional, organism-based
# Pichia kudriavzevii [16] = experiment: Antifungal activity against Candida krusei MTCC 3020; format: functional
# Candida albicans [17] = experiment: Antifungal activity against Candida albicans MTCC 3958; format: functional
# Nakaseomyces glabratus [18] = experiment: Antifungal activity against Candida glabrata MTCC 3019; format: functional
# Escherichia coli [19] = experiment: Inhibition of biofilm formation in Escherichia coli MTCC 739 incubated for 24 hrs by crystal violet staining based microtiter plate method; format: functional, organism-based
# Candida albicans [20] = experiment: Antifungal activity against Candida albicans MTCC 183; format: functional
# Micrococcus luteus [21] = experiment: Inhibition of biofilm formation in Micrococcus luteus MTCC 2470 incubated for 24 hrs by crystal violet staining based microtiter plate method; format: functional, organism-based
# Raoultella planticola [22] = experiment: Inhibition of biofilm formation in Klebsiella planticola MTCC 530 incubated for 24 hrs by crystal violet staining based microtiter plate method; format: functional, organism-based
# Escherichia coli [23] = experiment: Bactericidal activity against Escherichia coli MTCC 739; format: functional
# Staphylococcus aureus [24] = experiment: Bactericidal activity against Staphylococcus aureus MTCC 96; format: functional
# Raoultella planticola [25] = experiment: Antibacterial activity against Klebsiella planticola MTCC 530 assessed as inhibition of bacterial growth by microtiter broth dilution method; format: functional
# Raoultella planticola [26] = experiment: Bactericidal activity against Klebsiella planticola MTCC 530; format: functional
# Candida albicans [27] = experiment: Antifungal activity against Candida albicans MTCC 3018; format: functional
# THP-1 [28] = experiment: Cytotoxicity against human THP-1 cells assessed as cell damage at 200 uM by LDH assay; format: cell-based; conditions: thp-1, 200 µM
# Candida albicans [29] = experiment: Antifungal activity against Candida albicans MTCC 227; format: functional
# Micrococcus luteus [30] = experiment: Antibacterial activity against Micrococcus luteus MTCC 2470 assessed as inhibition of bacterial growth by microtiter broth dilution method; format: functional
# Pichia sporocuriosa [31] = experiment: Fungicidal activity against Issatchenkia hanoiensis MTCC 4755; format: functional
# THP-1 [32] = experiment: Cytotoxicity against human THP-1 cells assessed as reduction in cell viability at 200 uM by MTT assay; format: cell-based; conditions: thp-1, 200 µM
# Staphylococcus aureus [33] = experiment: Inhibition of biofilm formation in Staphylococcus aureus MLS16 MTCC 2940 incubated for 24 hrs by crystal violet staining based microtiter plate method; format: functional, organism-based
# Staphylococcus aureus [34] = experiment: Inhibition of biofilm formation in Staphylococcus aureus […] incubated for 24 hrs by crystal violet staining based microtiter plate method; format: functional, organism-based
# Candida albicans [35] = experiment: Antifungal activity against Candida albicans MTCC 1637; format: functional
# Pseudomonas aeruginosa [36] = experiment: Antibacterial activity against Pseudomonas aeruginosa MTCC 2453 assessed as inhibition of bacterial growth by microtiter broth dilution method; format: functional
# [37] = Selectivity index, ratio of CC50 for human THP-1 cells to MIC for Staphylococcus aureus MTCC 96; format: toxicity
# Bacillus subtilis [38] = experiment: Antibacterial activity against Bacillus subtilis MTCC 121 assessed as inhibition of bacterial growth by microtiter broth dilution method; format: functional
# Bacillus subtilis [39] = experiment: Bactericidal activity against Bacillus subtilis MTCC 121; format: functional
# Staphylococcus aureus [40] = experiment: Bactericidal activity against Staphylococcus aureus MLS16 MTCC 2940; format: functional
# Candida albicans [41] = experiment: Fungicidal activity against Candida albicans MTCC 1637; format: functional
# Pichia kudriavzevii [42] = experiment: Fungicidal activity against Candida krusei MTCC 3020; format: functional
# Candida albicans [43] = experiment: Fungicidal activity against Candida albicans MTCC 227; format: functional
# Candida parapsilosis [44] = experiment: Fungicidal activity against Candida parapsilosis MTCC 1745; format: functional; conditions: Lodderomyces parapsilosis
# Candida albicans [45] = experiment: Fungicidal activity against Candida albicans MTCC 854; format: functional
# Nakaseomyces glabratus [46] = experiment: Fungicidal activity against Candida glabrata MTCC 3019; format: functional
# Candida albicans [47] = experiment: Fungicidal activity against Candida albicans MTCC 3958; format: functional
# Candida albicans [48] = experiment: Fungicidal activity against Candida albicans MTCC 4748; format: functional
# Candida albicans [49] = experiment: Fungicidal activity against Candida albicans MTCC 3018; format: functional
# [Candida] aaseri [50] = Fungicidal activity against Candida aaseri MTCC 1962; format: functional; conditions: Yamadazyma aaseri
# [51] = Bacillus subtilis, MTCC 121, 24 h, read-out: IC50
# [52] = Pseudomonas aeruginosa, MTCC 2453, 24 h, read-out: IC50
# [53] = Escherichia coli, MTCC 739, 24 h, read-out: IC50
# [54] = Micrococcus luteus, MTCC 2470, 24 h, read-out: IC50
# [55] = Klebsiella planticola, MTCC 530, 24 h, read-out: IC50
# [56] = Staphylococcus aureus, MTCC 92, 24 h, read-out: IC50
smiles,measurement,setting,value
COc1ccc(-n2cc(COc3ccc(/C=N/Nc4nc(-c5cc6cccc(OC)c6oc5=O)cs4)cc3)nn2)cc1,IC50,Bacillus subtilis [1]; [51],16.6 µM
same,MIC,Candida albicans [2],> 215 µM
same,MIC,Staphylococcus aureus [3],3.71 µM
same,IC50,Candida albicans [4],35.6 µM
same,MBC,Pseudomonas aeruginosa [5],28.8 µM
same,MIC,Staphylococcus aureus [6],3.71 µM
same,MIC,[Candida] aaseri [7],> 215 µM
same,MIC,Candida parapsilosis [8],> 215 µM
same,MIC,Candida albicans [9],> 215 µM
same,MIC,Pichia sporocuriosa [10],6.7 µM
same,MFC,Candida albicans [11],26.9 µM
same,CC50,[12],34.5 µM
same,MBC,Micrococcus luteus [13],13.4 µM
same,MIC,Escherichia coli [14],6.7 µM
same,IC50,Pseudomonas aeruginosa [15]; [52],47.3 µM
same,MIC,Pichia kudriavzevii [16],> 215 µM
same,MIC,Candida albicans [17],> 215 µM
same,MIC,Nakaseomyces glabratus [18],> 215 µM
same,IC50,Escherichia coli [19]; [53],68 µM
same,MIC,Candida albicans [20],13.4 µM
same,IC50,Micrococcus luteus [21]; [54],155 µM
same,IC50,Raoultella planticola [22]; [55],40.2 µM
same,MBC,Escherichia coli [23],6.7 µM
same,MBC,Staphylococcus aureus [24],13.4 µM
same,MIC,Raoultella planticola [25],3.2 µM
same,MBC,Raoultella planticola [26],6.7 µM
same,MIC,Candida albicans [27],> 215 µM
same,Activity,THP-1 [28],Toxic
same,MIC,Candida albicans [29],> 215 µM
same,MIC,Micrococcus luteus [30],3.71 µM
same,MFC,Pichia sporocuriosa [31],13.4 µM
same,Activity,THP-1 [32],Toxic
same,IC50,Staphylococcus aureus [33],Not Active
same,IC50,Staphylococcus aureus [34]; [56],13.5 µM
same,MIC,Candida albicans [35],> 215 µM
same,MIC,Pseudomonas aeruginosa [36],13.4 µM
same,selectivity ratio,[37],9.28
same,MIC,Bacillus subtilis [38],3.71 µM
same,MBC,Bacillus subtilis [39],13.4 µM
same,MBC,Staphylococcus aureus [40],13.4 µM
Clc1ccc(COC(Cn2ccnc2)c2ccc(Cl)cc2Cl)c(Cl)c1 (stereo not given) [MICONAZOLE],MFC,Candida albicans [41],18.7 µM
same,IC50,Bacillus subtilis [1],Not Active
same,MIC,Candida albicans [2],18.7 µM
same,IC50,Candida albicans [4],2.5 µM
same,MIC,[Candida] aaseri [7],18.7 µM
same,MIC,Candida parapsilosis [8],18.7 µM
same,MFC,Pichia kudriavzevii [42],18.7 µM
same,MIC,Candida albicans [9],18.7 µM
same,MIC,Pichia sporocuriosa [10],18.7 µM
same,MFC,Candida albicans [11],18.7 µM
same,IC50,Pseudomonas aeruginosa [15],Not Active
same,MFC,Candida albicans [43],18.7 µM
same,MIC,Pichia kudriavzevii [16],18.7 µM
same,MIC,Candida albicans [17],18.7 µM
same,MIC,Nakaseomyces glabratus [18],18.7 µM
same,IC50,Escherichia coli [19],Not Active
same,MFC,Candida parapsilosis [44],18.7 µM
same,MIC,Candida albicans [20],18.7 µM
same,MFC,Candida albicans [45],18.7 µM
same,MFC,Nakaseomyces glabratus [46],18.7 µM
same,IC50,Micrococcus luteus [21],Not Active
same,IC50,Raoultella planticola [22],Not Active
same,MFC,Candida albicans [47],18.7 µM
same,MIC,Candida albicans [27],18.7 µM
same,MFC,Candida albicans [48],18.7 µM
same,MIC,Candida albicans [29],18.7 µM
same,MFC,Pichia sporocuriosa [31],18.7 µM
same,IC50,Staphylococcus aureus [33],Not Active
same,IC50,Staphylococcus aureus [34],Not Active
same,MFC,Candida albicans [49],18.7 µM
same,MFC,[Candida] aaseri [50],18.7 µM
same,MIC,Candida albicans [35],18.7 µM
COc1ccc(-n2cc(COc3ccc(/C=N/Nc4nc(-c5cc6cc(Br)cc(OC)c6oc5=O)cs4)cc3)nn2)cc1,MFC,Candida albicans [41],11.8 µM
same,IC50,Bacillus subtilis [1]; [51],15.9 µM
same,MIC,Candida albicans [2],> 190 µM
same,MIC,Staphylococcus aureus [3],5.9 µM
same,IC50,Candida albicans [4],40.6 µM
same,MBC,Pseudomonas aeruginosa [5],11.8 µM
same,MIC,Staphylococcus aureus [6],5.9 µM
same,MIC,[Candida] aaseri [7],5.9 µM
same,MIC,Candida parapsilosis [8],> 190 µM
same,MIC,Candida albicans [9],> 190 µM
same,MIC,Pichia sporocuriosa [10],> 190 µM
same,MFC,Candida albicans [11],23.7 µM
same,CC50,[12],30.3 µM
same,MBC,Micrococcus luteus [13],11.8 µM
same,MIC,Escherichia coli [14],5.9 µM
same,IC50,Pseudomonas aeruginosa [15]; [52],24.7 µM
same,MIC,Pichia kudriavzevii [16],> 190 µM
same,MIC,Candida albicans [17],> 190 µM
same,MIC,Nakaseomyces glabratus [18],5.9 µM
same,IC50,Escherichia coli [19]; [53],21.9 µM
same,MIC,Candida albicans [20],11.8 µM
same,MFC,Nakaseomyces glabratus [46],11.8 µM
same,IC50,Micrococcus luteus [21]; [54],47.8 µM
same,IC50,Raoultella planticola [22]; [55],22.2 µM
same,MBC,Escherichia coli [23],11.8 µM
same,MBC,Staphylococcus aureus [24],11.8 µM
same,MIC,Raoultella planticola [25],2.8 µM
same,MBC,Raoultella planticola [26],5.9 µM
same,MIC,Candida albicans [27],5.9 µM
same,Activity,THP-1 [28],Toxic
same,MIC,Candida albicans [29],> 190 µM
same,MIC,Micrococcus luteus [30],5.9 µM
same,Activity,THP-1 [32],Toxic
same,IC50,Staphylococcus aureus [33],Not Active
same,IC50,Staphylococcus aureus [34]; [56],12 µM
same,MFC,Candida albicans [49],11.8 µM
same,MFC,[Candida] aaseri [50],11.8 µM
same,MIC,Candida albicans [35],5.9 µM
same,MIC,Pseudomonas aeruginosa [36],5.9 µM
same,selectivity ratio,[37],5.14
same,MIC,Bacillus subtilis [38],5.9 µM
same,MBC,Bacillus subtilis [39],11.8 µM
same,MBC,Staphylococcus aureus [40],11.8 µM
